Test results published in patent US4382922A, “Peptides affecting gonadal function” (The Salk Institute for Biological Studies, priority 1982, dated 1983).
“And” between values parts separate entries of the source, which are not always exact repeats. Equal values may be shown once.

System: dispersed rat pituitary cells
Assay type: cell-based
Details: for Potency (relative to LRF): in vitro LH release, LRF = 1, confidence limits in parentheses
Protocol: The peptides prepared in the foregoing Example I are assayed in vitro using a four-day-old primary culture of dispersed rat pituitary cells and compared with LRF. The levels of LH secreted over a 4-hour period in response to the application of peptides are assayed by specific radioimmunoassay for rat LH. The results of testing are expressed in the tables herebelow: […]

Compound	NANOGRAMS OF LH SECRETED/ml. 4 hr.	Potency (relative to LRF)
CC(C)C[C@H](NC(=O)CNC(=O)[C@H](Cc1ccc(O)cc1)NC(=O)[C@H](CO)NC(=O)[C@H](Cc1c[nH]c2ccccc12)NC(=O)[C@H](Cc1c[nH]cn1)NC(=O)[C@@H]1CCC(=O)N1)C(=O)N[C@@H](CCCNC(=N)N)C(=O)N1CCC[C@H]1C(=O)NCC(N)=O [LRF, p-Glu-His-Trp-Ser-Tyr-Gly-Leu-Arg-Pro-Gly-NH2, reference compound]	898 and 1240 and 1702	
CCNC(=O)[C@@H]1CCCN1C(=O)[C@H](CCCNC(=N)N)NC(=O)[C@H](CC(C)C)NC(=O)[C@@H](Cc1ccc(OC)cc1)NC(=O)[C@H](Cc1ccc(O)cc1)NC(=O)[C@H](CO)NC(=O)[C@H](Cc1c[nH]c2ccccc12)NC(=O)[C@H](Cc1c[nH]cn1)NC(=O)[C@@H]1CCC(=O)N1 [Peptide No. 2, [OCH3 -D-Phe^6, Pro^9 -NEt]-LRF]		130(72-242)
CCNC(=O)[C@@H]1CCCN1C(=O)[C@H](CCCNC(=N)N)NC(=O)[C@H](CC(C)C)NC(=O)[C@@H](Cc1c(C)c(C)c(C)c(C)c1C)NC(=O)[C@H](Cc1ccc(O)cc1)NC(=O)[C@H](CO)NC(=O)[C@H](Cc1c[nH]c2ccccc12)NC(=O)[C@H](Cc1c[nH]cn1)NC(=O)[C@@H]1CCC(=O)N1 [Peptide No. 7, [pentamethyl-D-Phe^6, Pro^9 -NEt]-LRF]		86(50-145)
CCNC(=O)[C@@H]1CCCN1C(=O)[C@H](CCCNC(=N)N)NC(=O)[C@H](CC(C)C)NC(=O)[C@@H](Cc1ccc(OC)cc1)NC(=O)[C@H](Cc1ccc(O)cc1)NC(=O)[C@H](CO)NC(=O)[C@H](Cc1c[nH]c2ccccc12)NC(=O)[C@H](Cc1c[nH]cn1)NC(=O)[C@@H]1CCC(=O)N1 [[OCH3 -D-Phe^6, Pro^9 -NEt]-LRF]		about 130
CCNC(=O)[C@@H]1CCCN1C(=O)[C@H](CCCNC(=N)N)NC(=O)[C@H](CC(C)C)NC(=O)[C@@H](Cc1c(C)c(C)c(C)c(C)c1C)NC(=O)[C@H](Cc1ccc(O)cc1)NC(=O)[C@H](CO)NC(=O)[C@H](Cc1c[nH]c2ccccc12)NC(=O)[C@H](Cc1c[nH]cn1)NC(=O)[C@@H]1CCC(=O)N1 [[pentamethyl-D-Phe^6, Pro^9 -NEt]-LRF]		about 86
CCNC(=O)[C@@H]1CCCN1C(=O)[C@H](CCCNC(=N)N)NC(=O)[C@H](CC(C)C)NC(=O)[C@@H](Cc1ccc([N+](=O)[O-])cc1)NC(=O)[C@H](Cc1ccc(O)cc1)NC(=O)[C@H](CO)NC(=O)[C@H](Cc1c[nH]c2ccccc12)NC(=O)[C@H](Cc1c[nH]cn1)NC(=O)[C@@H]1CCC(=O)N1 [compound 1, [pNO2 -D-Phe^6, Pro^9 -NEt]-LRF]		141 (83-297)
CCNC(=O)[C@@H]1CCCN1C(=O)[C@H](CCCNC(=N)N)NC(=O)[C@H](CC(C)C)NC(=O)[C@@H](Cc1ccc(C)cc1)NC(=O)[C@H](Cc1ccc(O)cc1)NC(=O)[C@H](CO)NC(=O)[C@H](Cc1c[nH]c2ccccc12)NC(=O)[C@H](Cc1c[nH]cn1)NC(=O)[C@@H]1CCC(=O)N1 [compound 3]		143 (79-268)
CCNC(=O)[C@@H]1CCCN1C(=O)[C@H](CCCNC(=N)N)NC(=O)[C@H](CC(C)C)NC(=O)[C@@H](Cc1ccc(Cl)cc1)NC(=O)[C@H](Cc1ccc(O)cc1)NC(=O)[C@H](CO)NC(=O)[C@H](Cc1c[nH]c2ccccc12)NC(=O)[C@H](Cc1c[nH]cn1)NC(=O)[C@@H]1CCC(=O)N1 [compound 4]		59 (29-120)
CCNC(=O)[C@@H]1CCCN1C(=O)[C@H](CCCNC(=N)N)NC(=O)[C@H](CC(C)C)NC(=O)[C@@H](Cc1ccc(Cl)c(Cl)c1)NC(=O)[C@H](Cc1ccc(O)cc1)NC(=O)[C@H](CO)NC(=O)[C@H](Cc1c[nH]c2ccccc12)NC(=O)[C@H](Cc1c[nH]cn1)NC(=O)[C@@H]1CCC(=O)N1 [compound 5]		38 (16-82)
CCNC(=O)[C@@H]1CCCN1C(=O)[C@H](CCCNC(=N)N)NC(=O)[C@H](CC(C)C)NC(=O)[C@@H](Cc1ccc(NC(C)=O)cc1)NC(=O)[C@H](Cc1ccc(O)cc1)NC(=O)[C@H](CO)NC(=O)[C@H](Cc1c[nH]c2ccccc12)NC(=O)[C@H](Cc1c[nH]cn1)NC(=O)[C@@H]1CCC(=O)N1 [compound 6]		36 (21-69)
CCNC(=O)[C@@H]1CCCN1C(=O)[C@H](CCCNC(=N)N)NC(=O)[C@H](CC(C)C)NC(=O)[C@@H](Cc1ccccc1)NC(=O)[C@H](Cc1ccc(O)cc1)NC(=O)[C@H](CO)NC(=O)[C@H](Cc1c[nH]c2ccccc12)NC(=O)[C@H](Cc1c[nH]cn1)NC(=O)[C@@H]1CCC(=O)N1 [compound 8]		78 (46-132)
